Reference: patent US10689354B2, “Aminoazole derivative” (Teijin Pharma Limited, priority 2015, dated 2020)

What was measured:
[1] = molecular target: T1, androgen receptor (AR-LBD) (Rattus norvegicus, UniProt P15207); assay: Evaluation of androgen receptor affinity (PolarScreen Androgen Receptor Competitor Assay Kit, Red; fluorescence polarization); conditions: 22° C. for 5 hours, relative to binding rate of 1 μM DHT, read-out: AR affinity (pEC50) (converted)
T1 construct: 5 μL of 2×AR-LBD/Fluoromone AL Red Complex contained in the kit; purchased Invitrogen
T1 sequence (P15207 651-882 limits assumed): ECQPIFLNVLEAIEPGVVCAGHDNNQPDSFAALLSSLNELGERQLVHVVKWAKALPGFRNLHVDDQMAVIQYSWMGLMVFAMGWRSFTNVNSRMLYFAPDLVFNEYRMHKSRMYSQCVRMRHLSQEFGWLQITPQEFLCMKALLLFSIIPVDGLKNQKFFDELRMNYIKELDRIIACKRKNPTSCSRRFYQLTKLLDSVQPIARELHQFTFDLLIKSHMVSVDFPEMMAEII
Procedure, shortened: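 Duplicate wells of test compound were mixed with the kit's rat AR-LBD–Fluoromone AL Red tracer complex and left 5 hours at 22 °C before polarization was read. A 4-parameter fit gave pEC50, with binding rate referenced to 1 μM dihydrotestosterone.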

human androgen receptor = molecular target: T2, human androgen receptor (Homo sapiens, UniProt P10275); assay: Reporter assay of an androgen receptor responsive sequence (luciferase, transiently transfected HEK293 cells); assay type: cell-based; conditions: 24 hours incubation, relative to activity of 100 nM DHT, read-out: AR transcriptive activity (pEC50) (converted)
T2 construct: expressed in transfected cells; host or cells: HEK293
T2 sequence (P10275 1-920): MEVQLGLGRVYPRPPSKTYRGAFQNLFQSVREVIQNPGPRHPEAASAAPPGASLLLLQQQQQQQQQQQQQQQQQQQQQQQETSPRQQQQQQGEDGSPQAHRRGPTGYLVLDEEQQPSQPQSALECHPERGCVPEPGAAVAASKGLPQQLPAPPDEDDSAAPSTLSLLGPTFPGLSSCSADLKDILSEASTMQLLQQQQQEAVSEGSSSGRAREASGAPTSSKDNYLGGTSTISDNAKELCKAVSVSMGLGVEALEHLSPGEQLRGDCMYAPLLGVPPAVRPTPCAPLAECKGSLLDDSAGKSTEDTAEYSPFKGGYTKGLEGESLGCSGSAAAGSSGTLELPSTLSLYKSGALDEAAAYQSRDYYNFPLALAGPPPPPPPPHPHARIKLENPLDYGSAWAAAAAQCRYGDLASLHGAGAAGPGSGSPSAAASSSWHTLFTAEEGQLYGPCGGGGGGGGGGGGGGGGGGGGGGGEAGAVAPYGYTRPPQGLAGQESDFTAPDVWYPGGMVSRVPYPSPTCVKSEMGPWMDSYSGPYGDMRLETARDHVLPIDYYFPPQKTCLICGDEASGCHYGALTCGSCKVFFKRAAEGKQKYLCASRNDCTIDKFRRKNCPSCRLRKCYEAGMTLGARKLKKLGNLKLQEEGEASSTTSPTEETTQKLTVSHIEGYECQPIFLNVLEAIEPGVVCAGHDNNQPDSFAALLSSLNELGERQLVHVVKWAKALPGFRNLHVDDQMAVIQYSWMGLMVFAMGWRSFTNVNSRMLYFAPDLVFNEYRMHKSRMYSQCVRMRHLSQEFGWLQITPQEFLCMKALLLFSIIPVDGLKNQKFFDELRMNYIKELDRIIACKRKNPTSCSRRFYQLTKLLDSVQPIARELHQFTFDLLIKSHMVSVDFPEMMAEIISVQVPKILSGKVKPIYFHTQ
Procedure, shortened: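 Agonism scored as pEC50, fitted by 4-parameter curve against the response to 100 nM DHT, from dual-luciferase readout after 24 h compound treatment. Cells were HEK293 co-transfected (3 h) with human AR expression vector, androgen-responsive firefly reporter and Renilla control, in charcoal-stripped serum.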

| Structure (SMILES) | EC50 [1] [nM] | EC50 (human androgen receptor) [nM] |
| --- | --- | --- |
| CCc1oc(N(Cc2ccc(C(F)(F)F)nc2)c2ccc(C#N)cc2)nc1C(=O)NS(C)(=O)=O [Compound 639, 2-[4-cyano-N-[[6-(trifluoromethyl)-3-pyridyl]methyl]anilino]-5-ethyl-N-methylsulfonyl-oxazole-4-carboxamide] | 251 | 7940 |
| Cc1sc(N(CCc2ccccc2)Cc2ccccc2)nc1C(=O)NS(C)(=O)=O [Example 294, 2-[benzyl(2-phenylethyl)amino]-5-methyl-N-methylsulfonyl-thiazole-4-carboxamide] | 100 | 1000 |
| Cc1sc(N(CCOCc2ccccc2)c2ccc(C#N)cc2)nc1C(=O)NS(C)(=O)=O [Compound 367, 2-[N-(2-benzyloxyethyl)-4-cyano-anilino]-5-methyl-N-methylsulfonyl-thiazole-4-carboxamide] | 158 | > 10000 |
| Cc1oc(N(CCC2CCCC2)c2ccc(C#N)cc2)nc1C(=O)NS(C)(=O)=O [Compound 622, 2-[4-cyano-N-(2-cyclopentylethyl)anilino]-5-methyl-N-methylsulfonyl-oxazole-4-carboxamide] | 79.4 | > 10000 |
| Cc1sc(N(CCc2ccc(Cl)cc2)Cc2cccc(OC(F)(F)F)c2)nc1C(=O)NS(C)(=O)=O [Compound 145, 2-[2-(4-chlorophenyl)ethyl-[[3-(trifluoromethoxy)phenyl]methyl]amino]-5-methyl-N-methylsulfonyl-thiazole-4-carboxamide] | 50.1 | 316 |
| Cc1sc(N(Cc2ccccc2)c2ccc3nccnc3c2)nc1C(=O)NS(C)(=O)=O [Compound 744, 2-[benzyl(quinoxalin-6-yl)amino]-5-methyl-N-methylsulfonyl-thiazole-4-carboxamide] | 316 | 1260 |
| CS(=O)(=O)NC(=O)c1nc(N(Cc2ccc3occc3c2)c2ccc(C#N)cc2)sc1Cl [Example 279, 2-[N-(benzofuran-5-ylmethyl)-4-cyano-anilino]-5-chloro-N-methylsulfonyl-thiazole-4-carboxamide] | 31.6 | 50.1 |
| CS(=O)(=O)NC(=O)c1nc(N(Cc2cccc(OC(F)F)c2)c2ccc(C#N)cc2)sc1Br [Example 255, 5-bromo-2-[4-cyano-N-[[3-(difluoromethoxy)phenyl]methyl]anilino]-N-methylsulfonyl-thiazole-4-carboxamide] | 50.1 | 79.4 |
| Cc1sc(N(Cc2cc(F)c(F)c(F)c2)c2ccc(C#N)cc2)nc1C(=O)NS(C)(=O)=O [Compound 125, 2-[4-cyano-N-[(3,4,5-trifluorophenyl)methyl]anilino]-5-methyl-N-methylsulfonyl-thiazole-4-carboxamide] | 31.6 | 126 |

Second part, the molecule after the results:

| EC50 [1] [nM] | EC50 (human androgen receptor) [nM] | Structure (SMILES) |
| --- | --- | --- |
| 100 | 50.1 | Cc1sc(N(Cc2ccc(Br)cn2)c2ccc(C#N)cc2)nc1C(=O)NS(C)(=O)=O [Compound 153, 2-[N-[(5-bromo-2-pyridyl)methyl]-4-cyano-anilino]-5-methyl-N-methylsulfonyl-thiazole-4-carboxamide] |
| 39.8 | 20 | Cc1sc(N(Cc2ccc(Br)cc2)c2ccc(C#N)cc2)nc1C(=O)NS(C)(=O)=O [Compound 129, 2-[N-[(4-bromophenyl)methyl]-4-cyano-anilino]-5-methyl-N-methylsulfonyl-thiazole-4-carboxamide] |
| 63.1 | 25.1 | Cc1sc(N(Cc2ccc3occc3c2)c2ccc(C#N)cc2)nc1C(=O)NS(C)(=O)=O [Compound 26, 2-[N-(benzofuran-5-ylmethyl)-4-cyano-anilino]-5-methyl-N-methylsulfonyl-thiazole-4-carboxamide] |
| 251 | 1000 | Cc1sc(N(CCc2cccs2)c2ccc(C#N)cc2)nc1C(=O)NS(C)(=O)=O [Compound 131, 2-[4-cyano-N-[2-(2-thienyl)ethyl]anilino]-5-methyl-N-methylsulfonyl-thiazole-4-carboxamide] |
